The values that follow are results of earlier work, collected in patent US10561609B2, “Antiviral compositions” (The University of Liverpool, priority 2010, dated 2020).

Where a name gives a salt, the structure may show the parent alone.

For this data set the following is noted: according to M. Fardis and R. Oliyai; same value restated in g/L.

Take `CC(C)OC(=O)OCOP(=O)(CO[C@H](C)Cn1cnc2c(N)ncnc21)OCOC(=O)OC(C)C` [tenofovir disoproxil fumarate]: the water solubility was 13.4 mg/mL.
